Data: patent EP0738149B1 (priority 1994, dated 1995)

Assays:
rats [1] = experiment: Maximal electroshock (MES) model in rats, p.o.;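 further: rat MES model gauging antiepileptic efficacy versus generalized and partial seizures after oral dosing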; type: in vivo; settings: Rattus norvegicus, po, read-out: RATS MES 50
[2] = Neurotoxicity in mice (rotorod ataxia test), i.p.; settings: mouse, in vivo, ip
Description: (§1) Neurotoxicity of the claimed agents was also assessed in mice (i.p. administration) by the rotorod ataxia test and/or in rats (p.o. administration) by positional sense test and gait stance test. […] The term quantitating the neurotoxicity is the medial neurological toxic dose (TD50), was determined in the above tests.

mice = experiment: Neurotoxicity in mice (rotorod ataxia test), i.p.; settings: mice, i.p.; Table 16
Description: as §1

in vivo = settings: rat, in vivo, po
Description: as §1

rats [3] = experiment: Neurotoxicity in rats (positional sense test and gait stance test), p.o.; settings: rats, p.o.; Table 16
Description: as §1

NC1CCc2ccccc21 (racemic) [A, 1-aminoindan]
ED50 (rats [1]): 36 mg/kg
TD50 [2]: > 100 mg/kg
MICE TD50 (mice): >100 mg/kg
TD50 (in vivo): > 168 mg/kg
RATS TD50 (rats [3]): >168 mg/kg
